How the values were obtained:
Acetylcholinesterase [1] = biological target: T1, Acetylcholinesterase (Homo sapiens, UniProt P22303); assay: Inhibition of human erythrocytes AChE using acetylthiocholine iodide as substrate preincubated for 5 mins followed by substrate addition measured every min for 10 mins by Ellman's method
Acetylcholinesterase [2] = biological target: T1, Acetylcholinesterase; assay: Displacement of propidium iodide from PAS of human AChE after 6 hrs by fluorescence assay
Acetylcholinesterase [3] = biological target: T2, Acetylcholinesterase (Bos taurus, UniProt P23795); assay: Inhibition of bovine erythrocytes AChE using acetylthiocholine iodide as substrate by Ellman's method
T2 sequence (P23795 whole entry): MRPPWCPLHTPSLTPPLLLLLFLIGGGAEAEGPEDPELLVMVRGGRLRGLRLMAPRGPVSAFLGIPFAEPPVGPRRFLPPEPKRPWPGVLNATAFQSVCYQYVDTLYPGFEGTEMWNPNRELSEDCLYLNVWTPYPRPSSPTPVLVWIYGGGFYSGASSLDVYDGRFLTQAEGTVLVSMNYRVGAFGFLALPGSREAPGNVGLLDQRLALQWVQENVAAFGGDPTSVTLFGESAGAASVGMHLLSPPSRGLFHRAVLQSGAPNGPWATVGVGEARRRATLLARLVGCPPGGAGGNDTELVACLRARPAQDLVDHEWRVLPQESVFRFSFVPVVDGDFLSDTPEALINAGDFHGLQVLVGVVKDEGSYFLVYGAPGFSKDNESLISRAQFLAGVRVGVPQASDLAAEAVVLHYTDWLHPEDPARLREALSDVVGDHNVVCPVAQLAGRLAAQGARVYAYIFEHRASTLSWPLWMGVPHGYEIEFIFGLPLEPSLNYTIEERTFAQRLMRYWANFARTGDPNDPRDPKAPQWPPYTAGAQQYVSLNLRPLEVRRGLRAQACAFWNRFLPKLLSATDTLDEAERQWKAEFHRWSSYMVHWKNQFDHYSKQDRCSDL

[4] = biological target: Amyloid-beta precursor protein (Homo sapiens) (UniProt P05067); assay: Inhibition of self-induced aggregation of amyloid beta (1 to 42 residues) (unknown origin) at 10 uM measured every 5 mins by Thioflavin T dye based fluorescence assay relative to control
[5] = Apparent permeability from apical to basolateral side in human Caco2 cells assessed as drug recovery at 10 uM at pH 7.4 measured after 60 mins by HPLC-MS/MS method; assay type: ADME, cell-based; details: Caco-2, pH 7.4, read-out: Drug recovery
[6] = Apparent permeability from apical to basolateral side in human Caco2 cells at 10 uM at pH 7.4 measured after 60 mins by HPLC-MS/MS method; assay type: ADME, cell-based; details: Caco-2, pH 7.4
Acetylcholinesterase [7] = biological target: T1, Acetylcholinesterase; assay: Inhibition of human erythrocytes AChE at 10^-5 M using acetylthiocholine iodide as substrate preincubated for 5 mins followed by substrate addition measured every min for 10 mins by Ellman's method

T1 sequence (P22303 whole entry): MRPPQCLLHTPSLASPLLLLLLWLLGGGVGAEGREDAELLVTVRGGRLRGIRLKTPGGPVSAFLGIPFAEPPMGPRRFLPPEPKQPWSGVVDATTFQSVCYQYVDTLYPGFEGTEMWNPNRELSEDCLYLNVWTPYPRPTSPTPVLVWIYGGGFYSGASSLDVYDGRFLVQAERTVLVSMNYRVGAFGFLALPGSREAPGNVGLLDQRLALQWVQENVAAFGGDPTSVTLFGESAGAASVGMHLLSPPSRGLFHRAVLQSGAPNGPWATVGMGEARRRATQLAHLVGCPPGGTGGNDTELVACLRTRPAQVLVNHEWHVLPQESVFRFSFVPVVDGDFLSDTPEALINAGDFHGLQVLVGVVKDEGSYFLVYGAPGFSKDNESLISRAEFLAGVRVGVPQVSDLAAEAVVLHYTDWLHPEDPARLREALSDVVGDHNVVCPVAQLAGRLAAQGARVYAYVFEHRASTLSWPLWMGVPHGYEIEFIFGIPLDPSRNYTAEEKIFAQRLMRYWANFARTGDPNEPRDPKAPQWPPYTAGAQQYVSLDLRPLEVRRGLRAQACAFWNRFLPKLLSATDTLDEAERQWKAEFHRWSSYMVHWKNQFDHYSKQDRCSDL
Sequence of Amyloid-beta precursor protein (Homo sapiens) (P05067 whole entry, the tested form may be a part): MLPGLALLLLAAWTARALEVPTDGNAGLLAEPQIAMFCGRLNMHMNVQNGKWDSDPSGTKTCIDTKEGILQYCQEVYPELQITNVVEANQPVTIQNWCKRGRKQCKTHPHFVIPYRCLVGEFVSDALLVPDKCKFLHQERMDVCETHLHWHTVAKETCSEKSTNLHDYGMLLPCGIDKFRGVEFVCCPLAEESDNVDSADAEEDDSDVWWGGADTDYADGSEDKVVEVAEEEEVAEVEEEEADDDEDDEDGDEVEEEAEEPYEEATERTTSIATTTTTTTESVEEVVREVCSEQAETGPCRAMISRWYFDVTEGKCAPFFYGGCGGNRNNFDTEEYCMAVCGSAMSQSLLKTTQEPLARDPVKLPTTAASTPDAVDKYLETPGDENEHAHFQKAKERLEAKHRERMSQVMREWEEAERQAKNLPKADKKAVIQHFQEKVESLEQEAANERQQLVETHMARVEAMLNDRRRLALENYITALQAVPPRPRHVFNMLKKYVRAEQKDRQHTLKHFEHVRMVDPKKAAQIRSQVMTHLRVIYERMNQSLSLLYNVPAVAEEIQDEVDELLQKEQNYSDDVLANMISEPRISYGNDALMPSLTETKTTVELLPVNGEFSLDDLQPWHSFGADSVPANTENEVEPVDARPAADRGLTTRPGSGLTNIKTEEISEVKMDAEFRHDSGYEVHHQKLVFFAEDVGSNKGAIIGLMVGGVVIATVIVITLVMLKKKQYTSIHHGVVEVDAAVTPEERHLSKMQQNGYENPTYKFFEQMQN

## CN(C)C(=O)Oc1cccc2c1cc(C(=O)NCCOCCO)c[n+]2C
Acetylcholinesterase [1]
  IC50: 37 nM

## CN(C)C(=O)Oc1cccc2c1cc(C(=O)N(C)C)c[n+]2C
Acetylcholinesterase [1]
  IC50: 154 nM

## COC(=O)CNC(=O)c1cc2c(OC(=O)N(C)C)cccc2[n+](C)c1
Acetylcholinesterase [1]
  IC50: 93 nM

## CNC(=O)c1cc2c(OC(=O)N(C)C)cccc2[n+](Cc2ccccc2)c1
Acetylcholinesterase [1]
  IC50: 1160 nM

## CC(C)NC(=O)c1cc2c(OC(=O)N(C)C)cccc2[n+](C)c1
Acetylcholinesterase [1]
  IC50: 58 nM

## CN(C)C(=O)Oc1cccc2c1cc(C(=O)NCCOCCOCCN1C(=O)c3ccccc3C1=O)c[n+]2C
Acetylcholinesterase [2]
  Activity: 20%
Acetylcholinesterase [1]
  IC50: 6 nM
Acetylcholinesterase [3]
  IC50: 6 nM
[4]
  inhibition: 14%

## CNC(=O)c1cc2c(OC(=O)N(C)C)cccc2[n+](C)c1
Acetylcholinesterase [1]
  IC50: 77 nM

## COCCNC(=O)c1cc2c(OC(=O)N(C)C)cccc2[n+](C)c1
Acetylcholinesterase [1]
  IC50: 20 nM

## CC[n+]1cc(C(=O)NC)cc2c(OC(=O)N(C)C)cccc21
Acetylcholinesterase [1]
  IC50: 314 nM

## CN(C)C(=O)Oc1cccc2c1CC(C(=O)NCCOCCOCCN1C(=O)c3ccccc3C1=O)=CN2C
Acetylcholinesterase [1]
  IC50: > 10000 nM
[5]
  recovery at 1 h, 10 µM: 91%
[6]
  Papp A→B at 1 h, 10 µM: 11.1 ×10⁻⁶ cm/s

## CCN(C)C(=O)Oc1cccc2c1cc(C(=O)NC(C)C)c[n+]2C
Acetylcholinesterase [1]
  IC50: > 10000 nM

## CN(C)C(=O)Oc1cccc2c1cc(C(=O)Nc1ccccc1)c[n+]2C
Acetylcholinesterase [1]
  IC50: 30 nM

## Cc1c(C(=O)N(C)C)cc2c(OC(=O)N(C)C)cccc2[n+]1C
Acetylcholinesterase [1]
  IC50: > 10000 nM

## CC(C)NC(=O)c1cc2c(OC(=O)N3CCCC3)cccc2[n+](C)c1
Acetylcholinesterase [1]
  IC50: > 10000 nM

## Cc1c(C(=O)N(C)C)c(C)[n+](C)c2cccc(OC(=O)N(C)C)c12
Acetylcholinesterase [1]
  IC50: > 10000 nM

## C[n+]1cc(C(=O)NCCOCCOCCN2C(=O)c3ccccc3C2=O)cc2c(O)cccc21
Acetylcholinesterase [1]
  IC50: > 10000 nM
Acetylcholinesterase [7]
  inhibition: 35%

## Cc1c(C(=O)N(C)C)c[n+](C)c2cccc(OC(=O)N(C)C)c12
Acetylcholinesterase [1]
  IC50: > 10000 nM

## CN(C)C(=O)Oc1cccc2c1cc(C(=O)NC1CCCCC1)c[n+]2C
Acetylcholinesterase [1]
  IC50: 20 nM

From ChEMBL document CHEMBL4152292, “Rational design of carbamate-based dual binding site and central AChE inhibitors by a "biooxidisable" prodrug approach: Synthesis, in vitro evaluation and docking studies” (Eur J Med Chem, 2018)
